Reference: US8084003B2, “Ozone detecting device” (Nippon Telegraph and Telephone Corporation, priority 2006, dated 2011)
Like-named read-outs stand apart in the source and are kept apart here.

What was measured:
[1] = Deposition of the ultraviolet absorber as powder on the surface of the detecting device; assay type: physicochemical; settings: absorber solution in 50 ml acetone or water, device manufactured and dried
[2] = 25° C.
[3] = Ultraviolet absorbing ability dissolved in a solvent (spectrum of transmitted light); assay type: physicochemical
Method: For example, when equal amounts of 2-hydroxy-4-methoxybenzophenone-5-sulfonic acid trihydrate and 4-dodecyloxy-2-hydroxybenzophenone are added, the ultraviolet absorbing ability of 4-dodecyloxy-2-hydroxybenzophenone is 1.25 times that of 2-hydroxy-4-methoxybenzophenone-5-sulfonic acid trihydrate on the average in a wavelength region of 300 to 400 nm.
Although the addition amount of 2-hydroxy-4-methoxybenzophenone-5-sulfonic acid trihydrate is 0.8 g and that of 4-dodecyloxy-2-hydroxybenzophenone is 0.5 g, i.e., there is a difference between the addition amounts, it is impossible to explain why the large difference is produced between the changes in absorbance by ultraviolet radiation when they are applied to ozone detecting devices. Note that the ultraviolet absorbing ability of an ultraviolet absorber is proportional to the addition amount. When dissolved in a solvent, therefore, the absorbing ability of 0.8 g of 2-hydroxy-4-methoxybenzophenone-5-sulfonic acid trihydrate is about 1.3 times that of 0.5 g of 4-dodecyloxy-2-hydroxybenzophenone.

[4] = Ultraviolet exposure test with Artificial Sunlight XC-100AF (no UV filter), reflected-light absorbance at about 618 nm; assay type: physicochemical; settings: dye used instead of indigo carmine, with ultraviolet absorber
Method: An ultraviolet exposure test (experiment) in which the ozone detecting devices A to G described above are irradiated with ultraviolet light is conducted. In this test, the influence of ultraviolet light was evaluated by using Artificial Sunlight XC-100AF available from SERIC with no UV filter attached. The incident angle of illuminating light to each of ozone detecting devices A to G was set at 20°, the distance from the lower end of the artificial sunlight to each of ozone detecting devices A to G was set at 110 cm, and each of ozone detecting devices A to G was set in a central portion where the intensity of the illuminating light is highest.
Each of ozone detecting devices A to G described above was irradiated with ultraviolet light minute by minute for 1 to 5 min, and the reflected light from the ozone detecting device was measured with a spectrophotometer whenever the device was irradiated. The influence of ultraviolet light was evaluated by using the change in absorbance at a wavelength of about 618 nm as an index.

[5] = other water-soluble ultraviolet absorbers, temperature not given; cited from earlier work

SMILES | deposition in the form of powder on the surface of the device [1] | resistance to ultraviolet light with other dyes [4] | other results
CC(C)(C)c1ccc(O)c(-n2nc3ccccc3n2)c1 [2-(2-hydroxy-5-t-butylphenyl)-2H-benzotriazole] | deposits in the form of powder |  | 
CCC(C)(C)c1cc(-n2nc3ccccc3n2)c(O)c(C(C)(C)CC)c1 [2-(3,5-di-t-pentyl-2-hydroxyphenyl)-2H-benzotriazole] | deposits in the form of powder |  | 
COc1cc(O)c(C(=O)c2ccccc2)cc1S(=O)(=O)[O-].[Na+] [2-hydroxy-4-methoxybenzophenone-5-sodium sulfonate] | none of these ultraviolet absorbers deposited in the form of powder |  | water solubility [2]: more than 2.5 wt %
COc1cc(O)c(C(=O)c2ccccc2)cc1S(=O)(=O)O.O.O.O [2-hydroxy-4-methoxybenzophenone-5-sulfonic acid trihydrate] | none of these ultraviolet absorbers deposited in the form of powder |  | absorbing ability of 0.8 g relative to 0.5 g of 4-dodecyloxy-2-hydroxybenzophenone ([3]; dissolved in a solvent, scaled by addition amount): about 1.3 times; water solubility [2]: 25 wt %
CCCCCCCCCCCCOc1ccc(C(=O)c2ccccc2)c(O)c1 [4-dodecyloxy-2-hydroxybenzophenone, reference compound] | deposits in the form of powder |  | ultraviolet absorbing ability relative to 2-hydroxy-4-methoxybenzophenone-5-sulfonic acid trihydrate ([3]; equal amounts added, average in wavelength region 300 to 400 nm): 1.25 times
O=S(=O)([O-])c1ccc(O)c(N=Nc2c(O)ccc3ccccc23)c1.[Na+] [Acid Alizarin Violet N] |  | possible to increase the resistance to ultraviolet light | 
O=C1c2ccccc2C(=O)c2c1ccc(O)c2O [alizarin] |  | possible to increase the resistance to ultraviolet light | 
O=C(/C=C/c1ccccc1)c1ccccc1 [chalcone] |  | possible to increase the resistance to ultraviolet light | 
Nc1ccc(C(=O)O)cc1 [p-aminobenzoic acid] |  |  | water solubility [5]: 0.4 wt %
O=C(Oc1ccccc1)c1ccccc1O [phenyl salicylate] |  |  | water solubility [5]: 0.05 wt %
